The values that follow come from patent publication US20160074298A1, “POLYPHENOL/FLAVONOID COMPOSITIONS AND METHODS OF FORMULATING ORAL HYGIENIC PRODUCTS” (VIZURI HEALTH SCIENCES LLC, priority 2014, published 2016).

Data set [1] is described as follows: Apigenin and EGCG in saliva following use of formulated toothpastes (Example 15). The data set is classed as in vivo, human. The conditions noted are these: formulated into a toothpaste product. The procedure: This is a clinical study testing the effect of using one of 3 toothpaste products formulated with apigenin and epigallocatechin gallate (EGCG) on the retention of these flavonoids in the saliva. Briefly, 3 subjects provided saliva samples:
Each subject brushed their teeth for 2 min using the sulcular brushing technique with ˜1.8 gm toothpaste on a new toothbrush. Each subject brushed with only one of 3 products:
Saliva was collected at each time point in 50 mL Falcon tubes and immediately transferred to a freezer. All samples were transported to Tufts University within 8 hours of collection.
(§1) Apigenin in saliva was quantified using high performance liquid chromatograph (HPLC) with electrochemical detection (ECD). Apigenin and EGCG in 1 mL saliva was extracted using 3 ml acetonitrile. After 2 min of rigorous vortexing, the mixture was spun at 2,000 rpm for 15 min at 4° C. Supernatant was dried under N2 gas, reconstituted with mobile phase A, and analyzed for apigenin with HPLC-ECD. The limit of quantification (LOQ) for apigenin and EGCG in this assay is 15 and 25 ng/ml saliva, respectively.

Data set [2] is described as follows: Colorimetric retention of EGCG in saliva after brushing (Example 14). The conditions noted are these: PeroxiCare toothpaste with 0.1 wt. % EGCG and 0.1 wt. % ascorbic acid, pH ~10.5; saliva after brushing and rinsing. Format: in vivo, human. The procedure: A saliva sample with an EGCG containing alkaline toothpaste was obtained (1) before brushing and (2) 1 minute after brushing immediately after rinsing. The subject brushed for 2 minutes using the sulcular brushing technique with ˜1.8 gm toothpaste on a toothbrush.
A 5 ml sample of saliva was collected 10 minutes prior to brushing. Tooth brushing was conducted for 2 minutes with 1.8 gm of toothpaste applied to the brush. One minute after brushing, the oral cavity was rinsed with 50 ml of water. Following rinsing, about 8 ml of saliva was collected. The pH of the saliva was measured. In addition, the saliva samples were further made alkaline with the addition of NaOH crystals and the color of the resulting sample noted.

Data set [3] in a line: Solubilization in Listerine mouth rinse as sodium salt. Format: physicochemical. The procedure:
100 Grams of the Listerine® Resveratrol Containing Mouth Rinse Formulation was Prepared as Follows: • 1. 98.4 grams of the Listerine® caramel colored mouth rinse was added to a 300 ml Pyrex glass beaker. […] About 0.2 grams of fine NaOH crystals were added to the mixture from Step 2 and thoroughly mixed. A uniformly caramel colored blend resulted with a measured pH of ˜10. […] The pH of the mixture from Step 3 was adjusted to a pH 6.5 by the addition of about 0.2 grams of citric acid crystals. […] • 1. 98.6 grams of the Listerine® caramel colored mouthrinse was added to a 300 ml Pyrex glass beaker. […] About 0.2 grams of fine NaOH crystals were added to the mixture from Step 2 and thoroughly mixed. A uniformly caramel colored blend resulted with a measured pH of ˜10. […] The pH of the mixture from Step 2 was adjusted to a pH 8 by the addition of about 0.2 grams of citric acid crystals.

Data set [4] can be described thus: Heat solubilization in Kolliphor RH-40. The data set is classed as physicochemical. The source says:
Step 1. […] Step 3. […] Step 4. […] About 5% solution was stable. Step 1. […] Step 3.

A short description of data set [5]: Stability in alkaline toothpaste with sodium bicarbonate and peroxide. Format: physicochemical. The conditions noted are these: high pH ~10-10.5; sodium bicarbonate, sodium carbonate peroxide, peroxide stabilizer. The procedure:
It was experimentally determined that the toothpaste formulations containing both sodium bicarbonate and sodium carbonate peroxide together with stabilizing polymer formulations had pHs of ˜10-10.5. When aglycone flavone (i.e., apigenin and luteolin) powders were added to dentifrices including sodium bicarbonate, sodium bicarbonate peroxide and a peroxide stabilizer, it was also determined that soluble flavone sodium salts were formed that were stable in these highly oxidative peroxide compositions. The presence of stable soluble alkali metal flavone salts with highly anti-oxidant and anti-inflammatory properties in an emulsion formulation was totally unanticipated since aglycone flavones are prone to oxidative decomposition. Curcumin calcium chelate was fabricated and found to be stable in high pH PeroxiCare® toothpaste. Other curcumin chelates (Boron, Zn) were also found to be stable in this formulation, but were not tested in this study. This study was designed to determine if curcumin solubilized using either a heat solubilization or chelated salt technology performed in the same way as earlier results with the flavone apigenin. Vanillin is a breakdown product of curcumin and would be present if the curcumin had substantially decomposed (the lack of vanillin is indicative of a stable delivery of curcumin).

Data set [6] can be described thus: Stability of aqueous microemulsions as a function of pH. Format: physicochemical. To be noted: nonionic surfactants Polysorbate 80 and Cremophor/Kolliphor RH-40. The source says:
Stable microemulsions with apigenin and the nonionic surfactants, Polysorbate 80 and Cremophor/Kolliphor RH-40, were achieved provided a pH level of 8.0 to 8.5 was maintained. For luteolin, it as determined that a pH of 7 was required to maintain a stable aqueous microemulsion; and for resveratrol, a pH of >4.5 to 7.5.

Data set [7] in a line: Saliva concentrations of chronic 1% apigenin toothpaste users (Example 12). Format: in vivo, human. The conditions noted are these: chronic users of PeroxiCare with 1% apigenin. The procedure:
Two subjects who have used PeroxiCare® with apigenin at a 1% concentration on a chronic basis provided saliva samples at:
as §1, with “Saliva was collected at each time point in 50 ml Falcon tubes and immediately transferred to a freezer. All samples were transported to Tufts University within 24 hours of collection. Apigenin” for “Apigenin”, “Apigenin” for “Apigenin and EGCG”, “ml” for “mL”

Data set [8] can be described thus: Water solubility of flavonoid classes (Table XXIII). The data set is classed as physicochemical. To be noted: 20° C.

Turning to `O=C(O[C@@H]1Cc2c(O)cc(O)cc2O[C@@H]1c1cc(O)c(O)c(O)c1)c1cc(O)c(O)c(O)c1` [Epigallocatechin Gallate (EGCG), Epigallocatechin gallate], in [1], the “time found in saliva following toothpaste use” value is given as “at least one hour”. Further, the “retention of EGCG in saliva by color change on alkalizing” value in data set [2] is recorded as “retained after brushing”.

Take `Oc1ccc(C=Cc2cc(O)cc(O)c2)cc1` [resveratrol]: in data set [3] (adjusted to pH 6.5), the “resveratrol concentration of transparent solution” value turned out to be 1.2 mg/mL.

Turning to calcium-curcumin chelate, in [4] (equivalent concentration of 20% curcumin), the “behaviour in Kolliphor RH-40” value is “precipitates out”. For the same compound, the “stable solution in Kolliphor RH-40” value in [4] (heat solubilized) is reported as “About 5%”. Also, the “stability in alkaline peroxide toothpaste (PeroxiCare)” value (“stability” below) in [5] is on record as “stable”.

With `O=c1cc(-c2ccc(O)c(O)c2)oc2cc(O)cc(O)c12` [luteolin, 3′,4′,5,7-tetrahydroxyflavone], in data set [6], the “pH required to maintain a stable aqueous microemulsion” value is on record as 7. Besides, the “stability” value in data set [5] is “stable”. In [3] (adjusted to pH 8), the “luteolin concentration of transparent solution” value is 1.5 mg/mL.

For `O=c1cc(-c2ccc(O)cc2)oc2cc(O)cc(O)c12` [Apigenin, 4′,5,7,-trihydroxyflavone], the “persistence of apigenin levels in saliva post-brushing” value in [7] was “at least 8 hours”. Further, the “apigenin solubilized in RH-40” value in data set [4] is given as “more than 5%”. Besides, the “stable apigenin concentrate in PS80” value (5.0 wt. % apigenin in PS80, heated approaching 300 degree C, cooled to ambient) stood at 50 mg/mL. Besides, the “time found in saliva following toothpaste use” value in data set [1] is reported as “at least one hour”. Moreover, in [5], the “stability” value is on record as “stable”.

`O.Oc1cc(O)c2c(c1)O[C@H](c1ccc(O)c(O)c1)[C@@H](O)C2` [Catechin]: in data set [8], the “Water Solubility” value is ~5 mg/mL. For the setting “20° C., thermal processing method, not the maximum solubility levels”, the “PS80 Solubility” value was determined as 50 mg/mL.
